We go through five compounds from PMC6279743, “A small molecule ApoE4-targeted therapeutic candidate that normalizes sirtuin 1 levels and improves cognition in an Alzheimer’s disease mouse model” (Scientific Reports, 2018).

Series [1] can be described thus: Brain compound levels 2 hours after the last dose in efficacy studies. The series is classed as in vivo, mice. Conditions: pilot study, SQ 10 mg/kg/day, 28 days, n = 8. The protocol: Mice were euthanized and blood/tissues collected 2 hrs after dosing on day 28 by the method described above for PK. Frontal and parietal cortices (FrCx and PtCx, respectively), as well as the remaining brain tissue, from individual mice were dissected, snap frozen on dry ice, and stored at −80 °C. Plasma samples and the brain tissue minus the FrCx and PtCx (the ‘rest’) from all compound-treated mice were sent to IAS for compound level analysis as described above.
Mice were euthanized and blood/tissues collected 2 hrs after dosing on Day 25 by the method described above for PK. FrCx, PtCx, and hippocampi (Hip) were collected from all mice for SirT1 and sAPPα level determination by AlphaLISA. Protein concentration was determined using a Bradford protein assay. Brain and plasma levels of A03 were determined at IAS.
Mice were euthanized and blood/tissues collected 2 hrs after dosing on Day 56 by the method described above for PK. Hip and FrCx were collected for analysis of SirT1, sAPPα, and Aβ1-42 levels by AlphaLISA. For Aβ1-42 the Perkin Elmer kit AL276C was used. Protein concentrations were determined using the Bradford protein assay. The sAPPα and sAPPβ AlphaLISAs were similar to the SirT1 AlphaLISA (see Supplementary Fig. S3) but the former uses anti-sAPPα antibody AF1168 and 2B3-biotinylated antibodies and the latter an anti-sAPPβ antibody (IBL Cat. #18957) and an anti-N-terminal APP antibody (R&D Systems AF1168) instead of anti-SirT1 antibodies. Brain tissue and plasma were sent to IAS for A03 level analysis.

A short description of series [2]: Pharmacokinetics after subcutaneous (SQ) injection in mice. The class given is in vivo. Conditions: mouse, mice, SQ 10 mg/kg; for Cmax: brain, n = 1, read-out: Cmax in brain.
Series [3] in a line: Pharmacokinetics after oral delivery in mice. The class given is in vivo. The note with it: oral 10 mg/kg; for Tmax / AUC: mouse; for Tmax: brain, n = 1 per time point; for AUC: plasma; for AUC / AUC brain: 1-8 hours. As to the method: All in vivo experiments described were carried out in strict accordance with good animal practice according to NIH recommendations. All procedures for animal use were approved by the Animal Research Committee (ARC) at UCLA and under an approved ARC protocol. Pharmacokinetic (PK) analysis[68]–[70] consisted of oral delivery of compounds (10 mg/Kg) to individual mice followed by euthanasia at 1, 2, 4, 6, and 8 hours post-dose by ketamine/xylazine over-anesthesia, blood collection by cardiac puncture, and transcardial saline perfusion. Whole blood was centrifuged at 5000 rpm for 10 min. in a 5 °C centrifuge to isolate plasma and the plasma stored at −20 °C before analysis. Whole brains were collected, dissected down the midline, snap frozen on dry ice, and stored at −80 °C before analysis. The levels of the compounds in both plasma and brain tissue were determined by a quantitative LC/MS/MS methodology at Integrated Analytical Solutions (IAS, Berkeley, CA). Plasma samples were precipitated with an acetonitrile: methanol (1:1) cocktail containing an internal standard. Brain samples were homogenized directly in ethyl acetate by the liquid-liquid method. The resulting supernatant was evaporated to dryness and subjected to LC/MS/MS analysis. The Tmax, Cmax, brain-to-plasma ratios and brain levels were then calculated using PK Solutions software (SummitPK).

A short description of series [4]: Parallel Artificial Membrane Permeability Assay (PAMPA; IAM column). The series is classed as in vitro ADME. The note with it: for retention time (Tr) in PAMPA: IAM.PC.DD2 column, acetonitrile:PBS (pH 5.6) 35:65; for KIAM: KIAM = (Tr-T0)/T0, T0 = 1.24 min; for (KIAM/MW^4) * 10^−(10): MW 255.74 g/mol. The protocol: We used L(+)tartaric acid to isolate the L-enantiomer salt and D(-) tartaric acid to isolate the D-enantiomer salt, followed by neutralization of the salt with NaOH and re-crystallization to obtain the enantiomers. Enantiomer abundance (Supplementary Fig. S4) was determined by HPLC using a Chiralpak IB column. Isopropanol (0.2% diethylamine)/hexanes was used for gradient elution with 5–50% isopropanol (0.2% diethylamine) for 11 min, a Chiralpak IB column, and with sample (1 μL, 1.25 mg/mL) injection, 220 nm wavelength detection, and a flow rate of 1 mL/min. […] The L-alanine analog co-elutes with enantiomer-1 while the D-alanine analog co-elutes with enantiomer-2. Analysis of the enantiomers and A03 in the Parallel Artificial Membrane Permeability Assay (PAMPA) was performed and is described in Supplementary Methods. […]
PAMPA. An IAM.PC.DD2 Regis Technologies analytical (10 cm x 4.6 mm) column wherein phospholipid is bonded on 10 μm, 300 Å, spherical aminopropyl silica and end capped with C10 and C3 amides was used to determine membrane permeability of A03, E1 and E2. An isocratic method was used with a mobile phase comprising acetonitrile:PBS (pH 5.6) equal to 35:65, an injection volume of 5 µL, and a flow rate of 1 mL/min. The parameters determined are Tr = retention time of compound; KIAM= (Tr-T0)/T0; T0= is the delay time of the column, determined by use of 100 µg/mL citric acid) and was T0= 1.24 min; and (KIAM/MW4)*10-(10). The molecular weight of all three compounds was 255.74 g/mol. […]
Supplementary Fig. S1. […] (a) Transient transfection with either
ApoE3 or E4 decreased SirT1 levels as compared to empty vector (Pc/DMSO), but the decrease was greater with […]
On the technique in general: The PAMPA barrier holds no transporters, so it reflects passive diffusion.

Series [5] has as its system SirT1 levels in N2a-E4 cells. Put plainly: SirT1 AlphaLISA in N2a-E4 cells (HTS, secondary and dose-response testing). The note with it: for SirT1 increase, racemate vs enantiomers: 5 and 50 μM, n = 3 wells; for Dose-response increase in SirT1 in secondary testing: N2a-E4 cells, 1, 5 and 10 μM; for SirT1 level in HTS: 24 hrs, NIH Clinical Collection screen, A03 5 μM as positive control. The series is classed as cell-based, murine. As to the method:
For HTS we tested a portion of the UCLA compound library (10 plates) including the NIH Clinical Collection library (3 plates). Complete medium (25 µL) was added to each well of 384-well plates, then library compounds were added (250 nL) followed by a suspension of 4 × 10^5 cells/mL murine neuroblastoma N2a cells (25 μL) stably transfected with ApoE4 (N2a-E4). After incubation of the N2a-E4 cells with compounds for 24 hrs at 37 °C and 5% CO2, all but ~6 μL of medium were removed and AlphaLISA Lysis Buffer complemented with HALT protease/phosphatase inhibitor (20 μL, 1X final) was added to each well. To maximize lysis, the plates were frozen at −80 °C. For the AlphaLISA, lysates were thawed and vortexed for 1 min at 3000 rpm.
The AlphaLISA comprises streptavidin donor beads, biotinylated anti-SirT1 N-terminal antibody (19A7AB4), and acceptor beads conjugated to the anti-SirT1 C-terminal antibody (1F3); when the target protein is bound by both antibodies, the beads are in close enough proximity for a transfer of ^1O2 and emission of a detectable signal (Supplementary Fig. S3). For the AlphaLISA, a 384-proxy plate was preloaded with AlphaLISA buffer (2 µL, 1X) with HALT (1X), then cell lysate (2 μL) was transferred to the proxy plate followed by the antibody-mix (2 μL). After incubation at room temperature for 1 hr, the donor bead mixture was added (2 µL) and incubated for an additional 30 min. The plates were then read in an Envision plate reader. All points are one replicate. The standard curve is generated by serial dilution of recombinant SirT1 to assess the linear range of the assay; study samples undergo serial dilution as well. We use A03 as a positive control in the HTS assay. The Z-value, while not ideal, was <1 for the assay (Supplementary Fig. S3).
Compound in medium (50 µL, 2X) was loaded into a 96-well plate, then 4 × 10^4 cells were added to each well; 24 hrs later the medium was removed and cells lysed. Lysate protein concentration was determined using the Bradford assay according to the manufacturer’s instructions. SirT1 was determined in lysates using the SirT1 AlphaLISA as described above.
In general terms: Alpha assays give light when donor and acceptor beads are brought close together.

Series [6] concerns humans. More on the design: method as in PMID 22616762. Conditions: cited from earlier work.
[7] abbreviates: secondary assay, N2a-E4 cells, n = 6 wells.

Entries after “also recorded” stand apart in the source; their conditions may differ. Read-outs that look alike come from different tables or passages of the source.

What is called Cmax is the peak of the concentration-time curve. Broadly, the AUC is the area under the concentration-time curve, a measure of exposure. High values mean more exposure, low ones less exposure. What is called Tmax is the time from dosing to the highest level. For `C[C@H](N)C(=O)OC(C)(C)Cc1ccc(Cl)cc1` [E1], the “Brain levels 2 hours after the last dose, E1 vs A03” value in series [1] is listed as “slightly lower”. Besides, in series [2] (sc), the Cmax is roughly 5600 ng/g. For the same compound, the Cmax in series [2] (subcutaneous) was roughly 5800 ng/g. Moreover, the AUC in series [2] (plasma, sc) is 657 ng·h/mL. Besides, in series [3], the time of peak concentration (Tmax) came to 1 h, the AUC amounted to 86 ng·h/mL and the AUC brain amounted to 850 ng·h/g. Moreover, in series [4], the “retention time (Tr) in PAMPA” value stood at 3.3, the KIAM was determined as 1.66 and the “(KIAM/MW^4) * 10^−(10)” value is listed as 3.88. Besides, in series [5] (N2a-E4 cells), the “SirT1 increase, racemate vs enantiomers” value is “more effective in increasing SirT1 in vitro compared to the optical antipode E2; also recorded: increase SirT1 in N2a-E4 with high significance”.

Turning to `C[C@@H](N)C(=O)OC(C)(C)Cc1ccc(Cl)cc1` [E2], in series [3], the Tmax stood at 1 h, the AUC was found to be 104 ng·h/mL and the AUC brain is 806 ng·h/g. In series [4], the “retention time (Tr) in PAMPA” value is 3.31, the KIAM stood at 1.67 and the “(KIAM/MW^4) * 10^−(10)” value turned out to be 3.90. Further, the “SirT1 increase, racemate vs enantiomers” value in series [5] (N2a-E4 cells) was “shows lower potency”.

In the case of `Cc1nc(-c2cccnc2)sc1C(=O)Nc1ccccc1-c1cn2c(CN3CCOCC3)csc2n1` [SRT2104], the “Tolerability after single and multiple oral dosing” value in series [6] is on record as “well tolerated”.

Regarding `CNCCC(Oc1ccc(C(F)(F)F)cc1)c1ccccc1` (centres unmarked) [fluoxetine, reference compound], in series [5], the “Dose-response increase in SirT1 in secondary testing” value was “neither fluoxetine nor memantine (Fig. 3a) elicited a dose-response increase in SirT1”. The “SirT1 level in HTS” value in series [5] (N2a-E4 cells) is on record as “neither fluoxetine nor memantine enhanced SirT1”. Besides, the “SirT1 increase vs DMSO control at 1 μM” value in series [5] (setting [7]) is “only A03 and memantine at 1 μM elicited modest but significant increases”.

Consider `CC12CC3CC(C)(C1)CC(N)(C3)C2` [memantine, reference compound], for which the “Dose-response increase in SirT1 in secondary testing” value in series [5] is “neither fluoxetine nor memantine (Fig. 3a) elicited a dose-response increase in SirT1”. In series [5] (N2a-E4 cells), the “SirT1 level in HTS” value is listed as “neither fluoxetine nor memantine enhanced SirT1”. Further, in series [5] (setting [7]), the “SirT1 increase vs DMSO control at 1 μM” value is given as “modest but significant increases”. Further, in series [5] (secondary assay, N2a-E4 cells, 5 and 10 μM, n = 6 wells), the “SirT1 increase vs DMSO control at 5 and 10 μM” value is on record as “not at 5 or 10 μM”.
